We go through seven molecules from patent publication US20250154129A1, “CRYSTALLINE PHARMACEUTICALLY ACCEPTABLE SALT AND POLYMORPHIC FORM OF THE […] CYCLASE INHIBITOR VAROGLUTAMSTAT” (VIVORYON THERAPEUTICS N.V., priority 2023, published 2025).

Usually solubility stands for the concentration that dissolves in the medium under given conditions. A word on the pKa: it is the pH at which an ionisable group is half protonated. A higher pKa goes with a weaker acid or stronger base.

The test system of series [1] is CCL2/CCR2 axis. Conditions: three-week repeated administration, 30 and 100 mg/kg, twice daily; dose-dependent; cited from earlier work.
The nature of series [2]: Solubility in water of salt forms from 1 g scale salt screening in isopropanol. Format: physicochemical. The note with it: 20° C. From the text:
(§1) For such salts with a clear stoichiometry, their preparation was then repeated on 1 g scale (free base) in isopropanol with the acid slowly being added followed by seeding (seeds as obtained from the screening experiment). The solids were then further characterized with regard to: • Handling of crystals, • Crystal habit (microscopy, macroscopic): presence and shape of crystals, • Crystallinity (quality of crystals, XRPD), • Thermal analysis (DSC and TGA), • Hygroscopicity (DVS), and • Solubility in water.

Series [3] can be described thus: Solubility screen of the hydrochloride salt in single solvents (HPLC of mother liquor). Format: physicochemical. Conditions: 20° C. On the procedure: As a first step, a solubility screen of the hydrochloride salt (obtained from the 1 g scale experiments in Example 3.2) was performed in single solvents as listed in Table 5. This was done in order to identify the most suitable solvents for the process development.
The resulting suspensions were equilibrated for at least 4 hours and the mother liquors sampled for solubility determination by HPLC (see “Description of analytical procedures used in the Examples of the invention” for method details).
• Column: ZORBAX BONUS RP 150 mm×4.6 mm; 3.5 um • Eluent A: 0.05% HCOOH in H2O • Eluent B: 0.05% HCOOH in ACN • Flow 1.00 ml/min • Gradient: 2 min 100% Eluent A, linear increase of Eluent B from 2 to 20 min from 0 to 100% • Detection: UV at 225 nm

Series [4] in a line: Solubility screening of the Varoglutamstat free base (HPLC of mother liquor). Format: physicochemical. Here is the method:
75 mg of solid were transferred into a glass vial, a magnetic stir bar and 1.5 ml of solvent were added. […] The vials were then cooled to 20° C. and stirred for another 30 min. When completely dissolved, additional solid material was added, and the vial equilibrated for at least 3 hours at 20° C.
The mother liquor was sampled and analyzed for content via HPLC versus an external standard solution (1-point calibration).
• Column: PHENOMENEX LUNA C18, 50×4.6 mm, 3 μm, • Mobile phase A: 0.05% TFA in water, • Mobile phase B: 0.05% TFA in acetonitrile. • Gradient: 10% to 90% B in 10 min, 2 min hold, re-equilibrate to initial gradient composition. • Flow: 1.0 mL/min. • Detection: UV at 225 nm.

The subject of series [5] is mice doubly transgenic for human APP and human glutaminyl cyclase. The note with it: chronic oral dosing; cited from earlier work.
Series [6] can be described thus: pKa of Varoglutamstat (weak base). Format: physicochemical.
The nature of series [7]: Hygroscopicity (DVS) of salt forms from Example 3.2. It counts as physicochemical. Conditions: 1 g scale, isopropanol.
Text: as §1
VTI-SA by TA Instruments with Isotherm Software for data acquisition and handling, glass sample holder and de-ionised water for vapour production.

The nature of series [8]: Crystallinity by XRPD of salt forms from Example 3.2. Conditions: 1 g scale, isopropanol. It counts as physicochemical.
Text: as §1
• Angle: 2θ=2° to 2θ=40° • Sampling width 0.02 • Measurement time: 75 minutes.
Solid was positioned on sample holder, prepared with grease and flattened with a disc of glass.

Series [9] concerns Aβ soluble protofibrils. Conditions: adult patients with early Alzheimer disease; cited from earlier work.
[10] abbreviates: DMSO, solution obtained: solubility identical or higher than 50 mg/mL.
[11] abbreviates: MeOH, solution obtained: solubility identical or higher than 50 mg/mL.
Setting [12] is: Water, solution obtained: solubility identical or higher than 50 mg/mL.

Regarding `CCCOc1ccc(C2C(=O)NC(=O)N2c2ccc3[nH]cnc3c2)cc1` (stereo not drawn) [PQ529], in [1], the “serum and urine CCL2” value is on record as “significantly reduced”; the urinary protein excretion result was “significantly reduced”.

As for `CCCOc1ccc([C@H]2CNC(=O)N2c2ccc3[nH]cnc3c2)cc1` [TosOH], the “Solubility in water” value in series [2] (procedure of Example 4.1) stood at 3600 µM.

Consider `CCCOc1ccc([C@H]2CNC(=O)N2c2ccc3[nH]cnc3c2)cc1.Cl` [Varoglutamstat Hydrochloride, (S)-1-(1H-benzo[d]imidazol-5-yl)-5-(4-propoxyphenyl) imidazolidin-2-one hydrochloride], for which the ML free base in series [3] (ACN) is 0.1 mg/mL; in [3] (Acetone), 0.1 mg/mL; in [3] (setting [10]), 51.7 mg/mL; in [3] (EtOAc) it was 0.0 mg/mL; in series [3] (EtOH), 41.3 mg/mL; in series [3] (Heptane), 0.0 mg/mL. For the same molecule, the ML free base in series [3] (IPA) amounted to 3.6 mg/mL; in [3] (IPrOAc) it was 0.0 mg/mL; in series [3] (MEK) it was 0.0 mg/mL; in [3] (MIBK), 0.1 mg/mL; in [3] (Me-THF), 0.0 mg/mL; in series [3] (setting [11]), 47.5 mg/mL. Also, the ML free base in series [3] (TBME) was 0.0 mg/mL; in series [3] (THF), 0.0 mg/mL; in series [3] (Toluene) it was 0.1 mg/mL; in series [3] (setting [12]), 52.0 mg/mL; in [3] (nBuOH), 3.9 mg/mL; in series [3] (nPrOH), 10.4 mg/mL. Further, the “calculated HCl” value in series [3] (ACN) is 0.1 mg/mL; in [3] (Acetone), 0.1 mg/mL; in series [3] (setting [10]) it was 57.3 mg/mL; in series [3] (EtOAc) it was 0.0 mg/mL; in series [3] (EtOH) it was 45.8 mg/mL; in series [3] (Heptane), 0.0 mg/mL. For the same molecule, the “calculated HCl” value in [3] (IPA) is 4.0 mg/mL; in series [3] (IPrOAc) it was 0.0 mg/mL; in [3] (MEK), 0.0 mg/mL; in [3] (MIBK), 0.1 mg/mL; in [3] (Me-THF) it was 0.0 mg/mL; in series [3] (setting [11]) it was 52.6 mg/mL. The “calculated HCl” value in series [3] (TBME) is 0.0 mg/mL; in series [3] (THF), 0.0 mg/mL; in [3] (Toluene), 0.1 mg/mL; in [3] (setting [12]), 57.6 mg/mL; in series [3] (nBuOH) it was 4.4 mg/mL; in series [3] (nPrOH) it was 11.5 mg/mL.

Regarding `CCCOc1ccc([C@H]2CNC(=O)N2c2ccc3[nH]cnc3c2)cc1` [Varoglutamstat free base, (S)-1-(1H-benzo[d]imidazol-5-yl)-5-(4-propoxyphenyl)imidazolidin-2-one], the “solubility in organic solvents” value in series [4] (methyl-isobutyl-ketone, dichloro-methane, 20° C.) is recorded as “good”; in series [4] (tert-butyl-methyl-ketone, ethyl-acetate, isopropyl-acetate, heptane, toluene, 20° C.), “poorly soluble or insoluble”. For the same molecule, in [4] (organic solvent or mixture, thermodynamic from solid, acetone, tetrahydrofuran, methyl-tetrahydrofuran, methyl-ethylketone, 2-pentanone, acetonitrile, dimethylsulfoxide, methanol, ethanol, isopropanol, n-propanol, n-butanol, 20° C., read-out: excellent solubility in organic solvents), the solubility is not below 30 mg/mL. In series [4] (thermodynamic from solid, water, equilibrated at 20° C.), the solubility at 30 min is less than 1 mg/mL. Moreover, the “Solubility in water” value in series [4] (water, forms a sticky/oily suspension) was “almost insoluble”; in [2] (procedure of Example 4.1, listed as free base), 890 µM. Also, in [5], the “brain pyroglutamate Aβ” value was “reduce”. Further, the “recall in the Morris water maze test of spatial memory” value in series [5] is “improve”. For the same molecule, the pKa in [6] stood at 4.55.

Fumarate: the hygroscopicity result in [7] was “high”. Moreover, the “crystallinity (by XRPD)” value in series [8] is reported as “mediocre”.

Oxalate: the hygroscopicity entry in series [7] is “high”. Further, in [8], the “crystallinity (by XRPD)” value was “low”.

B1: Leqembi: humanized IgG1 monoclonal antibody which binds to Aβ soluble protofibrils with high affinity (antibody, chains of the INN, looked up, V domains shown)
VH: EVQLVESGGGLVQPGGSLRLSCSASGFTFSSFGMHWVRQAPGKGLEWVAYISSGSSTIYYGDTVKGRFTISRDNAKNSLFLQMSSLRAEDTAVYYCAREGGYYYGRSYYTMDYWGQGTTVTVSS
VL: DVVMTQSPLSLPVTPGAPASISCRSSQSIVHSNGNTYLEWYLQKPGQSPKLLIYKVSNRFSGVPDRFSGSGSGTDFTLRISRVEAEDVGIYYCFQGSHVPPTFGPGTKLEIK
Turning to B1, in series [9], the brain amyloid result was “reduce” and the cognitive decline result is given as “modestly slow”.
